Experimental data from patent US20170226552A1, “METHODS FOR MODULATING PROTEIN GLY[…] OF R[…] THERAPEUTICS USING COBALT” (AbbVie Inc., priority 2014, published 2017).

Experiments:
Format in all cases: cell-based, Chinese Hamster
[1] = tested on: Cell Line 1 (CHO cell line expressing Antibody 1); test: Cell Line 1 shake flask fedbatch culture: viable cell density and cell viability (trypan blue exclusion)
Experimental: (§1) Two recombinant Chinese Hamster Ovary (CHO) cell lines expressing two different recombinant glycoproteins were evaluated in 2 different culture vessels (shaker flasks and 3 L laboratory scale bioreactors). Cell Line 1 expressed humanized Antibody 1, and Cell Line 2 expressed Dual Variable Domain Immunoglobulin 1 (DVD1). Antibody 1 was an IgG1 glycoprotein, and DVD1 was an immunoglobulin glycoprotein with two variable domains as documented previously (Wu C. et al., (2007) Nat Biotechnol 25(11):1290-7).
(§2) Both cells lines were of CHO DUX-B11 origin based on a dhfr (dihydrofolate reductase) expression system. All cultures utilized the same chemically defined basal media (CDBM), and chemically-defined feed media (CDFM), except Cell Linel utilized a CDFM that was enriched at a 50% higher relative concentration. Each of the experimental conditions were supplemented with cobalt chloride (Sigma-Aldrich, St. Louis, Mo.) to evaluate its potential impact on the resulting N-glycan oligosaccharide profile. In preparation of the cultures, the cell lines were expanded through separate seed train inoculums to generate enough cell biomass for inoculation of multiple cultures. Process conditions utilized during the cultures were similar between each experimental condition and the respective non-cobalt supplemented control condition (Table 1).
(§3) Viable cell density (VCD) and cell viability values were measured through trypan blue exclusion via Cedex automated cell counters (Roche Applied Science, Indianapolis, Ind.), glucose and lactate values were measured with a ABL-805 (Radiometer Medical, Denmark) blood gas analyzer. Offline pH, dissolved oxygen (DO), and pCO2 measurements were also performed with a ABL-805 (Radiometer Medical, Denmark) blood gas analyzer. Osmolality was measured on a Multi-Osmette 2430 osmometer (Precision Systems, Natick, Mass.).

[2] = tested on: Cell Line 1 (CHO cell line expressing Antibody 1); test: Cell Line 1 shake flask fedbatch culture: harvest titer of Antibody 1 (Poros A HPLC)
Experimental: as §1, §2
(§4) Antibody titers were measured from crude cell culture harvests on a Poros A™ (Life Technologies, Carlsbad, Calif.) affinity column using an HPLC system operating with a low pH, step elution gradient with detection at 280 nm. Absolute concentrations were assigned with respect to reference standard calibration curves.

[3] = tested on: Cell Line 1 (CHO cell line expressing Antibody 1); test: Cell Line 1 shake flask fedbatch culture: N-glycan oligosaccharide profile of Antibody 1
Experimental: as §1
as §2, with “1). […]” for “1).”
(§5) Approximately 200 μg of Protein A purified samples from Cell Lines 1 and 2 were treated with N-glycanase at 37° C. for an overnight duration to remove the N-glycans from the protein. […] Following the derivatization step, the excess dye was removed using clean up cartridges and the samples were analyzed using normal phase HPLC with fluorescent detection. […] The labeled glycans were detected using a fluorescence detector with an excitation wavelength of 330 nm and an emission wavelength of 420 nm.

[4] = tested on: Cell Line 2 (CHO cell line expressing DVD1); test: Cell Line 2 shake flask fedbatch culture: viable cell density and cell viability (trypan blue exclusion)
Experimental: as §1, §2, §3

[5] = tested on: Cell Line 2 (CHO cell line expressing DVD1); test: Cell Line 2 shake flask fedbatch culture: harvest titer of DVD 1 (Poros A HPLC)
Experimental: as §1, §2, §4

[6] = tested on: Cell Line 2 (CHO cell line expressing DVD1); test: Cell Line 2 shake flask fedbatch culture: N-glycan oligosaccharide profile of DVD1
Experimental: as §1, §2
Purified antibodies subjected to additional analytical characterization were purified using MabSelect™ Protein A (GE Healthcare, Piscataway, N.J.) using a low pH, step elution gradient, followed by buffer exchange using Spin Concentrator X UF columns (Corning Lifesciences, Tewksbury, Mass.), or equivalent, according to the manufacturer's recommended procedure.
Approximately 200 μg of Protein A purified samples from Cell Lines 1 and 2 were treated with N-glycanase at 37° C. for an overnight duration to remove the N-glycans from the protein. The protein was precipitated and the supernatant was taken for subsequent chemical derivatization of the reducing end of the released glycans with 2-aminobenzamide (2-AB) dye. Following the derivatization step, the excess dye was removed using clean up cartridges and the samples were analyzed using normal phase HPLC with fluorescent detection. Mobile phase A was 100% acetonitrile and mobile phase B was 50 mM ammonium formate at pH 4.4. The glycans were eluted from a polyamide column (Prozyme, Hayward, Calif.) using a shallow gradient. The labeled glycans were detected using a fluorescence detector with an excitation wavelength of 330 nm and an emission wavelength of 420 nm.

[7] = tested on: Cell Line 1 (CHO cell line expressing Antibody 1); test: Cell Line 1 3 L laboratory-scale bioreactor culture: cell culture performance (VCD, viability, glucose, lactate, osmolality); settings: Cell Line 1, 3 L bioreactor, 50 μM CoCl2
Experimental: as §1, §2, §3
3 L scale-down model bioreactors were utilized to verify the impact of CoCl2 on the resulting protein glycosylation profiles in Cell Line 1. Cell culture process performance indicators were monitored and measured throughout the respective cultures. Viable cell density, cell viability, harvest titer, and harvest N-glycan oligosaccharide data was measured and reported. FIG. 4 highlights the cell culture performance results observed through the use of 50 μM CoCl2 targeted supplementation into the CDBM and CDFM. Similar to the shake flask results, there was a modest drop in the viable cell density profile (FIG. 4A), but no change in the viability profile in the 50 μM CoCl2 supplemented culture (FIG. 4B). […] Similar to the shake flask results using 50 μM CoCl2, there was a nominal drop in the final harvest titer with the cobalt supplemented culture achieving a final harvest titer 10% below that of the unsupplemented control (FIG. 4F).

[8] = tested on: Cell Line 1 (CHO cell line expressing Antibody 1); test: Cell Line 1 3 L laboratory-scale bioreactor culture: harvest titer of Antibody 1; settings: Cell Line 1, 3 L bioreactor, 50 μM CoCl2
Experimental: as §1
(§6) Both cells lines were of CHO DUX-B11 origin based on a dhfr (dihydrofolate reductase) expression system. […]
Antibody titers were measured from crude cell culture harvests on a Poros A™ (Life Technologies, Carlsbad, Calif.) affinity column using an HPLC system operating with a low pH, step elution gradient with detection at 280 nm. […]
3 L scale-down model bioreactors were utilized to verify the impact of CoCl2 on the resulting protein glycosylation profiles in Cell Line 1. Cell culture process performance indicators were monitored and measured throughout the respective cultures. Viable cell density, cell viability, harvest titer, and harvest N-glycan oligosaccharide data was measured and reported. […]

[9] = tested on: Cell Line 1 (CHO cell line expressing Antibody 1); test: Cell Line 1 3 L laboratory-scale bioreactor culture: N-glycan oligosaccharide profile of Antibody 1
Experimental: as §1, §6, §5
3 L scale-down model bioreactors were utilized to verify the impact of CoCl2 on the resulting protein glycosylation profiles in Cell Line 1. Cell culture process performance indicators were monitored and measured throughout the respective cultures. […]

[10] = Cell Line 2, shake flask, 100 μM cobalt
[11] = Cell Line 2, shake flask, 1-100 μM CoCl2

With `[Cl-].[Cl-].[Co+2]` [CoCl2, cobalt (II) chloride] the “concentration up to which there was a negligible impact on cell growth” value ([1]; Cell Line 1) was 50 µM, the “peak VCD compared to the control” value ([1]; Cell Line 1, shake flask, 1, 5, and 25 μM) was “approximately similar” and the “peak VCD” value ([1]; Cell Line 1, shake flask, cobalt 50 μM in CDBM and CDFM) was “approximately 9.4×10^6 cells/mL”. For the same compound, the “peak VCD” value ([1]; Cell Line 1, shake flask, cobalt 100 μM in CDBM and CDFM) was ~7.0×10^6 cells/mL, the “cell viability at harvest compared to the unsupplemented control” value ([1]; Cell Line 1, shake flask, each cobalt concentration evaluated (1-100 μM), harvest Day 14) was “slightly higher cell viability” and the “concentration up to which there was a negligible impact on recombinant protein productivity” value ([2]; Cell Line 1) was 50 µM. For the same compound, the “drop in productivity (harvest titer of Antibody 1) vs control” value ([2]; Cell Line 1, shake flask, 100 μM cobalt) was 21%, the “impact on recombinant antibody productivity (harvest titer of Antibody 1)” value ([2]; Cell Line 1, shake flask, 1, 5, 25, and 50 μM cobalt) was “negligible impact” and the “change in relative abundance of NGA2F-GlcNAc vs unsupplemented control” value ([3]; 1-100 μM CoCl2) was “statistically significant decreases”. The “change in NA2F species vs unsupplemented control” value ([3]; 1-100 μM CoCl2, much lower relative amount than NA1F) was “increased”, the “change in NA1F species vs unsupplemented control” value ([3]; concentration-dependent, 1-100 μM CoCl2) was “increase” and the “concentration up to which there was a negligible impact on cell growth” value ([4]; Cell Line 2) was 25 µM. The “peak VCD compared to the control” value ([4]; Cell Line 2, shake flask, 1, 5, and 25 μM) was “approximately similar”, the “peak VCD” value ([4]; Cell Line 2, shake flask, cobalt 50 μM in CDBM and CDFM) was “approximately 10.6×10^6 cells/mL” and the “peak VCD” value ([4]; Cell Line 2, shake flask, cobalt 100 μM in CDBM and CDFM) was ~6.7×10^6 cells/mL. The “cell viability over time and at harvest” value ([4]; Cell Line 2, shake flask, higher cobalt media concentrations, after Day 6) was “higher cell viability”, the “concentration up to which there was a negligible impact on recombinant protein productivity” value ([5]; Cell Line 2) was 5 µM and the “decrease in productivity (harvest titer of DVD 1) vs control” value (“decrease in productivity” for short) ([5]; Cell Line 2, shake flask, 25 μM cobalt) was 20%. For the same compound, the “decrease in productivity” value ([5]; Cell Line 2, shake flask, 50 μM cobalt) was 35%, the “decrease in productivity” value [5, 10] was 47% and the “impact on recombinant antibody productivity (harvest titer of DVD 1)” value ([5]; Cell Line 2, shake flask, 1 and 5 μM cobalt) was “negligible impact”. For the same compound, the “increase in NA1F glycans vs unsupplemented control” value [6, 10] was 6.2%, the “change in relative abundance of NGA2F-GlcNAc vs unsupplemented control” value [6, 11] was “statistically significant decreases” and the “change in relative abundance of high mannose glycans vs unsupplemented control” value [6, 11] was “statistically significant decreases”. For the same compound, the “change in NA2F species vs unsupplemented control” value ([6]; Cell Line 2, shake flask, 1-100 μM CoCl2, much lower relative amount than NA1F) was “increased”, the “maximum absolute percentage increase in galactosylated N-glycans relative to the unsupplemented control” value ([6]; Cell Line 2, shaker flask cultures) was 6% and the “glucose levels in the culture media vs unsupplemented control over time” value [7] was “approximately similar”. For the same compound, the “higher lactate concentration in culture media vs unsupplemented control” value [7] was no more than 0.5 g/L, the “osmolality levels vs unsupplemented control” value [7] was “slightly elevated” and the “viability profile vs unsupplemented control” value [7] was “no change”. For the same compound, the “viable cell density profile vs unsupplemented control” value [7] was “modest drop”, the “final harvest titer below that of the unsupplemented control” value [8] was 10% and the “increase in NA1F species vs unsupplemented control” value ([9]; Cell Line 1, 3 L bioreactor, 50 μM CoCl2) was “approximately 8%”. The “maximum absolute percentage increase in galactosylated N-glycans relative to the unsupplemented control” value ([9]; Cell Line 1, 3 L scale bioreactors) was 8%.
